The term IC50 denotes the concentration that gives 50% inhibition. By melting point is commonly meant the temperature, or range, at which the solid turns liquid.

Where a name gives a salt, the structure may show the parent alone.

The target of the first data set is Recombinant human PARP (Homo sapiens, UniProt P09874). The data set is described as follows: PARP enzyme activity inhibitory action. As to conditions: PARP inhibitory activity IC50 (nM), 3H-NAD, activated DNA, 25° C. 15 min; average of 3 measurements.
Sequence of Recombinant human PARP (P09874 whole entry): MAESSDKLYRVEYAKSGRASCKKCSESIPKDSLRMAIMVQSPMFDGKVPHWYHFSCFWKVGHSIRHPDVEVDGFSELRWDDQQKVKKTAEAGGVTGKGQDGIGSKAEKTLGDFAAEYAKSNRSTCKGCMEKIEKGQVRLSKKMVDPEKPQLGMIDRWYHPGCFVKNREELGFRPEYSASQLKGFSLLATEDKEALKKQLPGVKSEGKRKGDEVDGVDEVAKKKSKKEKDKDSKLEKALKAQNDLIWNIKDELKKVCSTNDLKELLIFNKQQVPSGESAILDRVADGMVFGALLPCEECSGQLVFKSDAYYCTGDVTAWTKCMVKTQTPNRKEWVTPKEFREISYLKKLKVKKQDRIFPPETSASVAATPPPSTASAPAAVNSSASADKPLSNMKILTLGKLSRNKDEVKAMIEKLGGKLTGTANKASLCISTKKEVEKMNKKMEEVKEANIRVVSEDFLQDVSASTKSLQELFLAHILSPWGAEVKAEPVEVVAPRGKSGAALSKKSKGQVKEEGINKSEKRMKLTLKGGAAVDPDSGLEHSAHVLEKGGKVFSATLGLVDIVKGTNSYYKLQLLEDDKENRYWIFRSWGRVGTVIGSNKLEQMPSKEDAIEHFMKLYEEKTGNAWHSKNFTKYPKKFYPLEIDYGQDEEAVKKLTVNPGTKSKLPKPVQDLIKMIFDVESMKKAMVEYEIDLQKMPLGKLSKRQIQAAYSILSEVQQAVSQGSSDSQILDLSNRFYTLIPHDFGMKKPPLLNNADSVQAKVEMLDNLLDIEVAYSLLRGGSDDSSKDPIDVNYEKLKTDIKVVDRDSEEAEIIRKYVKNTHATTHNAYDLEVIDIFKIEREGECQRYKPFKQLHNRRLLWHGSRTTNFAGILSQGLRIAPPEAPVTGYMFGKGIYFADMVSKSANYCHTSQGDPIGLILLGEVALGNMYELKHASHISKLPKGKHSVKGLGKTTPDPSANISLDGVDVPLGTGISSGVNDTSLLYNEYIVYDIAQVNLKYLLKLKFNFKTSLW
Experimental: After incubation at 25° C. for 15 min., the reaction was quenched with 20% trichloroacetic acid, and the resulting acid insoluble fraction was adsorbed on a GF/B filter. The filter was washed several times with 5% trichloroacetic acid, and the radiation dose on the filter was measured by liquid scintillation counter.
`Cc1cccc2c(=O)[nH]c([C@@H]3CCN4CCCC4C3)cc12` (single isomer, unassigned) [Example 225, 5-methyl-3-(octahydroindolizin-7-yl)-2H-isoquinolin-1-one ¾ water adduct]: the IC50 was found to be 26 nM.
Turning to `Cc1cccc2c(=O)[nH]c([C@@H]3CCN4CCCC4C3)cc12` (single isomer, unassigned) [Example 226, 5-methyl-3-(octahydroindolizin-7-yl)-2H-isoquinolin-1-one ½ water adduct], the IC50 was 31 nM.
Regarding `CN(C)C1CCN(c2cc3ccccc3c(=O)[nH]2)CC1` [Example 3, 3-(4-dimethylaminopiperidine-1-yl)-2H-isoquinolin-1-one], the IC50 was determined as 70 nM.
Consider `CN1CCN(c2cc3ccccc3c(=O)[nH]2)CC1CO` (stereo not drawn) [Example 4, 3-(3-hydroxymethyl-4-methylpiperazin-1-yl)-2H-isoquinolin-1-one], for which the IC50 was 42 nM.
For `COc1cccc2c(=O)[nH]c(N3CCN(C)CC3)cc12` [Example 18, 5-methoxy-3-(4-methylpiperazin-1-yl)-2H-isoquinolin-1-one], the IC50 was found to be 56 nM.
Consider `CN1CCN(c2cc3c(O)cccc3c(=O)[nH]2)CC1` [Example 19, 5-hydroxy-3-(4-methylpiperazin-1-yl)-2H-isoquinolin-1-one], for which the IC50 was found to be 25 nM.
Still for that read-out and setting: then `CN1CCN(c2cc3c(F)cccc3c(=O)[nH]2)CC1` [Example 20, 5-fluoro-3-(4-methylpiperazin-1-yl)-2H-isoquinolin-1-one], with 75 nM; and `CN1CCN(c2cc3c(Cl)cccc3c(=O)[nH]2)CC1` [Example 21, 5-chloro-3-(4-methylpiperazin-1-yl)-2H-isoquinolin-1-one], with 82 nM.
On to `CN1CCN(c2cc3c(Br)cccc3c(=O)[nH]2)CC1` [Example 22, 5-bromo-3-(4-methylpiperazin-1-yl)-2H-isoquinolin-1-one], for which the IC50 amounted to 96 nM.
On the same count and under the same terms, then `CN(C)C1CCN(c2cc3c(F)cccc3c(=O)[nH]2)CC1` [Example 28, 5-fluoro-3-(4-dimethylaminopiperidin-1-yl)-2H-isoquinolin-1-one], with 63 nM; and `CN(C)CCCc1cc2ccccc2c(=O)[nH]1` [Example 85, 3-(3-(dimethylamino)propyl)-2H-isoquinolin-1-one], with 47 nM; and `O=c1[nH]c(C2CN3CCC2CC3)cc2ccccc12` (stereo not drawn) [Example 86, 3-(1-azabicyclo[2.2.2]octan-3-yl)-2H-isoquinolin-1-one], with 61 nM.
In the case of `Cc1cccc2c(=O)[nH]c(C3CCNCC3)cc12` [Example 93, 3-(piperidin-4-yl)-5-methyl-2H-isoquinolin-1-one hydrochloride], the IC50 stood at 44 nM.
On the same count and under the same terms, then `Cc1cccc2c(=O)[nH]c(CCCN(C)C)nc12` [Example 145, 8-methyl-2-[3-(dimethylamino)propyl]-3H-quinazolin-4-one], with 39 nM; and `Cc1cccc2c(=O)[nH]c(N3CCN(C)C(CO)C3)cc12` (stereo not drawn) [Example 153, 3-(3-hydroxymethyl-4-methylpiperazin-1-yl)-5-methyl-2H-isoquinolin-1-one], with 36 nM; and `Cc1cccc2c(=O)[nH]c(CCN3CCCCC3)nc12` [Example 165, 8-methyl-2-(2-piperidinoethyl)-3H-quinazolin-4-one], with 52 nM.
Turning to `Cc1cccc2c(=O)[nH]c(CCCN3CCCC3)nc12` [Example 176, 8-methyl-2-[3-(pyrrolidin-1-yl)propyl]-3H-quinazolin-4-one], the IC50 was found to be 44 nM.
With `Cc1cccc2c(=O)[nH]c(CCN3CCCCC3)cc12` [Example 218, 5-methyl-3-[2-(piperidin-1-yl)ethyl]-2H-isoquinolin-1-one], the IC50 was determined as 26 nM.
As for `O=c1[nH]c(CCN2CCCCC2)cc2ccccc12` [Example 219, 3-[2-(piperidin-1-yl)ethyl]-2H-isoquinolin-1-one], the IC50 came to 63 nM.
`O=c1[nH]c(CCN2CCCC2)cc2ccccc12` [Example 220, 3-[2-(pyrrolidin-1-yl)ethyl]-2H-isoquinolin-1-one]: the IC50 was 77 nM.
Regarding `Cc1cccc2c(=O)[nH]c(CCN3CCCC3)cc12` [Example 221, 5-methyl-3-[2-(pyrrolidin-1-yl)ethyl]-2H-isoquinolin-1-one], the IC50 was 42 nM.
Take `Cc1cccc2c(=O)[nH]c(CCCN3CCCC3)cc12` [Example 222, 5-methyl-3-[3-(pyrrolidin-1-yl)propyl-1-yl]-2H-isoquinolin-1-one]: the IC50 turned out to be 36 nM.
On to `Cc1cccc2c(=O)[nH]c(CCCN3CCCCC3)cc12` [Example 228, 5-methyl-3-[3-(piperidin-1-yl)propyl]-2H-isoquinolin-1-one], for which the IC50 was 72 nM.
The same measure, in the same setting: then `Cc1cccc2c(=O)[nH]c(C3CCN(C)C3)cc12` (stereo not drawn) [Example 248, 5-methyl-3-(1-methylpyrrolidin-3-yl)-2H-isoquinolin-1-one], with 68 nM; and `O=c1[nH]c(N2CCCCC2)cc2ccccc12` [Example Y-3010, reference compound], with 5100 nM.
For `O=c1[nH]c(N2CCN(CCO)CC2)cc2ccccc12` [Example Y-3079, reference compound], the IC50 worked out at 79 nM.
Regarding `Cc1cccc2c(=O)[nH]c(N3CCN(C)CC3)nc12` [Pfizer, reference compound], the IC50 is 240 nM.

Test system in the next data set: not given
Assay: not given
Details: not given
`CN(C)C1CCN(c2cc3ccccc3c(=O)[nH]2)CC1` [Example 3, 3-(4-dimethylaminopiperidine-1-yl)-2H-isoquinolin-1-one]: the melting point was 204 to 205 °C (dec.).
Take `CN1CCN(c2cc3c(F)cccc3c(=O)[nH]2)CC1` [Example 20, 5-fluoro-3-(4-methylpiperazin-1-yl)-2H-isoquinolin-1-one]: the melting point was 238 to 239 °C (dec.).
On to `CN1CCN(c2cc3c(Cl)cccc3c(=O)[nH]2)CC1` [Example 21, 5-chloro-3-(4-methylpiperazin-1-yl)-2H-isoquinolin-1-one], for which the melting point is 230 to 231 °C (dec.).
The same measure, in the same setting: as for `CN1CCN(c2cc3c(Br)cccc3c(=O)[nH]2)CC1` [Example 22, 5-bromo-3-(4-methylpiperazin-1-yl)-2H-isoquinolin-1-one], the figure is 240 to 241 °C (dec.); as for `O=c1[nH]c(N2CCNC(CO)C2)cc2c(Br)cccc12` (stereo not drawn) [Example 198, 5-bromo-3-(3-hydroxymethylpiperazin-1-yl)-2H-isoquinolin-1-one], > 230 °C (dec.).
`CN1CCN(c2cc3c(Br)cccc3c(=O)[nH]2)CC1CO` (stereo not drawn) [Example 199, 5-bromo-3-(3-hydroxymethyl-4-methylpiperazin-1-yl)-2H-isoquinolin-1-one] gave a melting point of 200 to 202 °C.
On the same count and under the same terms, as for `O=c1[nH]c(N2CCC(N3CCCCC3)CC2)cc2ccccc12` [Example 200, 3-(4-piperidinopiperidin-1-yl)-2H-isoquinolin-1-one], the figure is > 200 °C (dec.); as for `O=c1[nH]c(N2CCCC(CO)C2)cc2ccccc12` (stereo not drawn) [Example 201, 3-(3-hydroxymethylpiperidin-1-yl)-2H-isoquinolin-1-one], 143 to 144 °C.
Same read-out and setting: then `CN(C)C(=O)C1CCCN(c2cc3ccccc3c(=O)[nH]2)C1` (stereo not drawn) [Example 202, 3-(3-(dimethylcarbamoyl)piperidin-1-yl)-2H-isoquinolin-1-one], with 187 to 188 °C; and `CC(C)CN1CCN(c2cc3ccccc3c(=O)[nH]2)CC1CO` (stereo not drawn) [Example 203, 3-(3-hydroxymethyl-4-isobutylpiperazin-1-yl)-2H-isoquinolin-1-one], with 130 to 132 °C.
Still for that read-out and setting: as for `CN(C)CC1CCCN(c2cc3ccccc3c(=O)[nH]2)C1` (stereo not drawn) [Example 206, 3-(3-(dimethylaminomethyl)piperidin-1-yl)-2H-isoquinolin-1-one], the figure is 141 to 143 °C.
The compound `COCOc1ccc2cc(C3CCN(C)CC3)[nH]c(=O)c2c1` [Example 210, 7-methoxymethyloxy-3-(1-methylpiperidin-4-yl)-2H-isoquinolin-1-one] showed a melting point of 200 to 202 °C.

The record behind these values is patent publication US20040176361A1, “Fused heterocyclic compound and medicinal use thereof” (priority 2001, published 2004).
